From ChEMBL document CHEMBL5143733, “Discovery of (E)-3-(3-((2-Cyano-4'-dimethylaminobiphenyl-4-ylmethyl)cyclohexanecarbonylamino)-5-fluorophenyl)acrylic Acid Methyl Ester, an Intestine-Specific, FXR Partial Agonist for the Treatment of Nonalcoholic Steatohepatitis” (J Med Chem, 2022)
The source made the active and inactive calls. The calls are words filed in the database; no cut-off is given here.

How the values were obtained:
Bile acid receptor = molecular target: T1, Bile acid receptor (Homo sapiens, UniProt Q96RI1)
T1 sequence (Q96RI1 whole entry): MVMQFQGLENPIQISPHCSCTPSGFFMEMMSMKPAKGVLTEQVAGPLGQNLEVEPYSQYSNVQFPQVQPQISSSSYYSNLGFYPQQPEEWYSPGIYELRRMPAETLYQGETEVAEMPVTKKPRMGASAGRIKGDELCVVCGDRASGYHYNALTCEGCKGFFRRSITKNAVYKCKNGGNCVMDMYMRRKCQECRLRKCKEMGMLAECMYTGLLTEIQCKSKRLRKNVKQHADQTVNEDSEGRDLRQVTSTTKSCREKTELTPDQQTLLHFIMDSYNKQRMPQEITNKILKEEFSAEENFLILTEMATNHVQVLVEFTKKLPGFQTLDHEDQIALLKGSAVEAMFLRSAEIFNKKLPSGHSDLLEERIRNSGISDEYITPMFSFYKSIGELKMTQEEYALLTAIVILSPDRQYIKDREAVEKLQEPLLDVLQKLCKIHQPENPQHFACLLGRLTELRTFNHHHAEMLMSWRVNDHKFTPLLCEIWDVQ
Description: Agonist activity at human FXR transfected in CHO-K1 cells coexpressed with beta-galactosidase incubated for 3 to 16 hrs by PathHunter chemiluminescence based assay

[1] = molecular target: T2, Bile acid receptor (Homo sapiens) (UniProt Q96RI1); assay: Antagonist activity at human FXR expressed in CHO-K1 FXR cells coexpressed with beta-galactosidase at 10 uM preincubated for 60 mins followed by GW4064 addition and measured after 3 to 16 hrs by PathHunter chemiluminescence based assay relative to control; type: cell-based; design: scale not given: the % may be the effect or the level left; details: time 4-17 hrs
T2 sequence (whole entry): T1 sequence (Q96RI1 whole entry)

[2] = Volume of distribution at steady state in Sprague-Dawley rat at 5 mg/kg, iv measured up to 24 hrs by HPLC analysis; type: ADME, organism-based; details: in vivo, read-out: Vdss
[3] = Clearance in Sprague-Dawley rat at 5 mg/kg, iv measured up to 24 hrs by HPLC analysis; type: ADME, organism-based; details: in vivo
[4] = AUClast in Sprague-Dawley rat at 5 mg/kg, iv measured up to 24 hrs by HPLC analysis; type: ADME, organism-based; design: time < 24 hrs, dose 5 mg/kg, route iv; details: Sprague-Dawley, in vivo
[5] = molecular target: T2, Bile acid receptor (Homo sapiens); assay: Antagonist activity at human FXR expressed in CHO-K1 FXR cells coexpressed with beta-galactosidase at 3.3 uM preincubated for 60 mins followed by GW4064 addition and measured after 3 to 16 hrs by PathHunter chemiluminescence based assay relative to control; type: cell-based; design: scale not given: the % may be the effect or the level left; details: time 4-17 hrs
[6] = molecular target: T2, Bile acid receptor (Homo sapiens); assay: Antagonist activity at human FXR expressed in CHO-K1 FXR cells coexpressed with beta-galactosidase at 1.1 uM preincubated for 60 mins followed by GW4064 addition and measured after 3 to 16 hrs by PathHunter chemiluminescence based assay relative to control; type: cell-based; design: scale not given: the % may be the effect or the level left; details: time 4-17 hrs
[7] = Stability in Sprague-Dawley rat plasma at 80 mg/kg, po measured after 3 hrs by RP-HPLC analysis; type: ADME, organism-based; details: in vivo
[8] = molecular target: T2, Bile acid receptor (Homo sapiens); assay: Agonist activity at human FXR transfected in CHO-K1 cells coexpressed with beta-galactosidase at 10 uM incubated for 3 to 16 hrs by PathHunter chemiluminescence based assay relative to control; type: cell-based; details: time 3-16 hrs
[9] = Half life in Sprague-Dawley rat at 5 mg/kg, iv measured up to 24 hrs by HPLC analysis; type: ADME, organism-based; details: in vivo
[10] = molecular target: T3, Bile acid receptor (Mus musculus) (UniProt Q60641); assay: In vivo activation of FXR in […]-induced nonalcoholic steatohepatitis C57BL/6J mouse model assessed as improved glucose tolerance measured up to 120 mins by glucose tolerance test; type: functional
T3 sequence (whole entry): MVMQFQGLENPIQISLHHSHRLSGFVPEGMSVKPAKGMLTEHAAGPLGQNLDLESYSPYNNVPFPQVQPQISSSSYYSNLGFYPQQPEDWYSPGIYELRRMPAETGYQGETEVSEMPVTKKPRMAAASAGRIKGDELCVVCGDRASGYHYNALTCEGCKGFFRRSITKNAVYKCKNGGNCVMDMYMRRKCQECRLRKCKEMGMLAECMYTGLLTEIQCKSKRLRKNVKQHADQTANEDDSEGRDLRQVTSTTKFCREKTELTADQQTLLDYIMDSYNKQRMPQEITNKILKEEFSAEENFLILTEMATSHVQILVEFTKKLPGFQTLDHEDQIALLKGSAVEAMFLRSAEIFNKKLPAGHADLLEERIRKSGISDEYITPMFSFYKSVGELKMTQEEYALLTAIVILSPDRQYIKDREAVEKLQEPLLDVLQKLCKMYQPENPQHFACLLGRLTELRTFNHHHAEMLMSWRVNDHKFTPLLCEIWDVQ

[11] = Toxicity in CDAHFD-induced nonalcoholic steatohepatitis C57BL/6J mouse model assessed as change in amount of food intake at 80 mg/kg, po administered daily for 4 weeks; type: organism-based; details: in vivo, 672 h
[12] = Toxicity in CDAHFD-induced nonalcoholic steatohepatitis C57BL/6J mouse model assessed as change in body weight at 80 mg/kg, po administered daily for 4 weeks; type: organism-based; details: in vivo, 672 h
[13] = molecular target: T3, Bile acid receptor (Mus musculus); assay: In vivo activation of FXR in CDAHFD-induced nonalcoholic steatohepatitis C57BL/6J mouse model assessed as induction of SHP gene expression at 80 mg/kg, po administered daily for 4 weeks; type: functional, organism-based
[14] = molecular target: T3, Bile acid receptor (Mus musculus); assay: In vivo activation of FXR in CDAHFD-induced nonalcoholic steatohepatitis C57BL/6J mouse model assessed as induction of OST-alpha gene expression at 80 mg/kg, po administered daily for 4 weeks; type: functional, organism-based
[15] = molecular target: T3, Bile acid receptor (Mus musculus); assay: In vivo activation of FXR in CDAHFD-induced nonalcoholic steatohepatitis C57BL/6J mouse model assessed as induction of IBABP gene expression at 80 mg/kg, po administered daily for 4 weeks; type: functional, organism-based
[16] = molecular target: T3, Bile acid receptor (Mus musculus); assay: In vivo activation of FXR in CDAHFD-induced nonalcoholic steatohepatitis C57BL/6J mouse model assessed as induction of SHP gene expression in liver at 80 mg/kg, po administered daily for 4 weeks; type: functional, organism-based
[17] = molecular target: T3, Bile acid receptor (Mus musculus); assay: In vivo activation of FXR in CDAHFD-induced nonalcoholic steatohepatitis C57BL/6J mouse model assessed as induction of FGF15 gene expression at 80 mg/kg, po administered daily for 4 weeks; type: functional, organism-based
[18] = molecular target: T3, Bile acid receptor (Mus musculus); assay: In vivo activation of FXR in CDAHFD-induced nonalcoholic steatohepatitis C57BL/6J mouse model assessed as reduction in liver fibrosis at 80 mg/kg, po administered daily for 4 weeks by picrosirius red staining method; type: functional, organism-based
[19] = Toxicity in CDAHFD-induced nonalcoholic steatohepatitis C57BL/6J mouse model assessed as increase in liver wet weight at 80 mg/kg, po administered daily for 4 weeks […]; type: organism-based; details: in vivo, 672 h
[20] = molecular target: Androgen receptor (Homo sapiens) (UniProt P10275); assay: Agonist activity at human AR expressed in CHO-K1 cells assessed as maximum relative efficacy at 100 uM by PathHunter assay relative to 6alpha-fluorotestosterone; type: cell-based
[21] = molecular target: Peroxisome proliferator-activated receptor delta (Homo sapiens) (UniProt Q03181); assay: Agonist activity at human PPAR-delta expressed in CHO-K1 cells assessed as maximum relative efficacy at 100 uM by PathHunter assay relative to L-165,041; type: cell-based
[22] = molecular target: Retinoic acid receptor RXR-alpha (Homo sapiens) (UniProt P19793); assay: Agonist activity at human RXR-alpha expressed in U2OS cells assessed as maximum relative efficacy at 100 uM by PathHunter assay relative to 9-cis-retinoic acid; type: cell-based
[23] = molecular target: Oxysterols receptor LXR-beta (Homo sapiens) (UniProt P55055); assay: Agonist activity at human LXR-beta expressed in CHO-K1 cells assessed as maximum relative efficacy at 100 uM by PathHunter assay relative to TO901317; type: cell-based
[24] = molecular target: Thyroid hormone receptor beta (Homo sapiens) (UniProt P10828); assay: Agonist activity at human THR-beta expressed in CHO-K1 cells assessed as maximum relative efficacy at 100 uM by PathHunter assay relative to triiodothyronine ine; type: cell-based
[25] = molecular target: Retinoic acid receptor beta (Homo sapiens) (UniProt P10826); assay: Agonist activity at human RAR-beta expressed in CHO-K1 cells assessed as maximum relative efficacy at 100 uM by PathHunter assay relative to 9-cis-retinoic acid; type: cell-based
[26] = molecular target: Progesterone receptor (Homo sapiens) (UniProt P06401); assay: Agonist activity at human PR-alpha expressed in U2OS cells assessed as maximum relative efficacy at 100 uM by PathHunter assay relative to norgestrel; type: cell-based
[27] = molecular target: Progesterone receptor (Homo sapiens) (UniProt P06401); assay: Agonist activity at human PR-beta expressed in U2OS cells assessed as maximum relative efficacy at 100 uM by PathHunter assay relative to norgestrel; type: cell-based
[28] = molecular target: Peroxisome proliferator-activated receptor gamma (Homo sapiens) (UniProt P37231); assay: Agonist activity at human PPAR-gamma expressed in CHO-K1 cells assessed as maximum relative efficacy at 100 uM by PathHunter assay relative to troglitazone; type: cell-based
[29] = molecular target: Peroxisome proliferator-activated receptor alpha (Homo sapiens) (UniProt Q07869); assay: Agonist activity at human PPAR-alpha expressed in CHO-K1 cells assessed as maximum relative efficacy at 100 uM by PathHunter assay relative to GW7647; type: cell-based
[30] = molecular target: Retinoic acid receptor RXR-beta (Homo sapiens) (UniProt P28702); assay: Agonist activity at human RXR-beta expressed in U2OS cells assessed as maximum relative efficacy at 100 uM by PathHunter assay relative to 9-cis-retinoic acid; type: cell-based
[31] = molecular target: Retinoic acid receptor alpha (Homo sapiens) (UniProt P10276); assay: Agonist activity at human RAR-alpha expressed in CHO-K1 cells assessed as maximum relative efficacy at 100 uM by PathHunter assay relative to 9-cis-retinoic acid; type: cell-based
[32] = molecular target: Thyroid hormone receptor alpha (Homo sapiens) (UniProt P10827); assay: Agonist activity at human THR-alpha expressed in CHO-K1 cells assessed as maximum relative efficacy at 100 uM by PathHunter assay relative to control; type: cell-based
[33] = molecular target: Estrogen receptor (Homo sapiens) (UniProt P03372); assay: Agonist activity at human ERalpha expressed in CHO-K1 cells assessed as maximum relative efficacy at 100 uM by PathHunter assay relative to 17-beta-estradiol; type: cell-based
[34] = molecular target: Mineralocorticoid receptor (Homo sapiens) (UniProt P08235); assay: Agonist activity at human MR expressed in CHO-K1 cells assessed as maximum relative efficacy at 100 uM by PathHunter assay relative to aldosterone; type: cell-based
[35] = molecular target: Glucocorticoid receptor (Homo sapiens) (UniProt P04150); assay: Agonist activity at human GR expressed in CHO-K1 cells assessed as maximum relative efficacy at 100 uM by PathHunter assay relative to dexamethasone; type: cell-based
[36] = molecular target: Oxysterols receptor LXR-alpha (Homo sapiens) (UniProt Q13133); assay: Agonist activity at human LXR-alpha expressed in CHO-K1 cells assessed as maximum relative efficacy at 100 uM by PathHunter assay relative to TO901317; type: cell-based

Chain of Progesterone receptor (Homo sapiens) (P06401 whole entry): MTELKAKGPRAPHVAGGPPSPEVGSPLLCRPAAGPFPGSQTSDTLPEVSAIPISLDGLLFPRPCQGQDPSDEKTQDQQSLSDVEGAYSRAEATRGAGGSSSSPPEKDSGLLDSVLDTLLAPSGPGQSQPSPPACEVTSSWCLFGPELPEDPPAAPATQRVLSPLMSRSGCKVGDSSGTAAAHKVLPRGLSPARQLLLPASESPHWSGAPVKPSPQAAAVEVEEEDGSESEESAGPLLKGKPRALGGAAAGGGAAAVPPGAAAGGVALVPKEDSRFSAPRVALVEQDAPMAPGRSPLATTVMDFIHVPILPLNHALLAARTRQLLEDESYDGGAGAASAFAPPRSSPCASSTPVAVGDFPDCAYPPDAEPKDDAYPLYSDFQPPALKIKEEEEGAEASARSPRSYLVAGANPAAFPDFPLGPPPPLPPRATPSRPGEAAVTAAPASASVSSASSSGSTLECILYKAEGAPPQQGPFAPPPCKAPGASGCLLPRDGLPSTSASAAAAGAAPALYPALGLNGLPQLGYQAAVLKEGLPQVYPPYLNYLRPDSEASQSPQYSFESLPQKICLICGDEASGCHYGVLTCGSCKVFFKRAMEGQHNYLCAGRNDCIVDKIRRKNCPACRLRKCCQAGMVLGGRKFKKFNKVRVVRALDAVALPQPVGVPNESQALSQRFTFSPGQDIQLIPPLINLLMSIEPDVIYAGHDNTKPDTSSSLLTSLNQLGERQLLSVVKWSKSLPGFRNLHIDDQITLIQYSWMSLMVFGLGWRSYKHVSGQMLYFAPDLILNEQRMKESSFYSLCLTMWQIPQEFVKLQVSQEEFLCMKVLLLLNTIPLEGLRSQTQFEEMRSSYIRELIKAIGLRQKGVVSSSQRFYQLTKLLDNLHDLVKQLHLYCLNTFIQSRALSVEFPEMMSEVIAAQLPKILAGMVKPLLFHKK
Chain of Oxysterols receptor LXR-beta (Homo sapiens) (P55055 whole entry): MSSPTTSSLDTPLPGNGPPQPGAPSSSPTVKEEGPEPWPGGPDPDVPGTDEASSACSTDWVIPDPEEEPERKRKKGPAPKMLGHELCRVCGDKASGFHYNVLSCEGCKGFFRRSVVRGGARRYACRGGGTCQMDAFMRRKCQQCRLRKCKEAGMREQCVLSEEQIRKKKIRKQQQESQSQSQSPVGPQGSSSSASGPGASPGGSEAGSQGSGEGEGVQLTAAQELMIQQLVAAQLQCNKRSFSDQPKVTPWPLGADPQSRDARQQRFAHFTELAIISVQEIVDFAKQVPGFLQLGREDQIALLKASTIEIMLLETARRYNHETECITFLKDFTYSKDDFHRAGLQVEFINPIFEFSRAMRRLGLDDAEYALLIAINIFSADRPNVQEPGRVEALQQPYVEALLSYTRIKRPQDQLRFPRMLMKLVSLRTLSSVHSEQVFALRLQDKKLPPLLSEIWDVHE
Chain of Mineralocorticoid receptor (Homo sapiens) (P08235 whole entry): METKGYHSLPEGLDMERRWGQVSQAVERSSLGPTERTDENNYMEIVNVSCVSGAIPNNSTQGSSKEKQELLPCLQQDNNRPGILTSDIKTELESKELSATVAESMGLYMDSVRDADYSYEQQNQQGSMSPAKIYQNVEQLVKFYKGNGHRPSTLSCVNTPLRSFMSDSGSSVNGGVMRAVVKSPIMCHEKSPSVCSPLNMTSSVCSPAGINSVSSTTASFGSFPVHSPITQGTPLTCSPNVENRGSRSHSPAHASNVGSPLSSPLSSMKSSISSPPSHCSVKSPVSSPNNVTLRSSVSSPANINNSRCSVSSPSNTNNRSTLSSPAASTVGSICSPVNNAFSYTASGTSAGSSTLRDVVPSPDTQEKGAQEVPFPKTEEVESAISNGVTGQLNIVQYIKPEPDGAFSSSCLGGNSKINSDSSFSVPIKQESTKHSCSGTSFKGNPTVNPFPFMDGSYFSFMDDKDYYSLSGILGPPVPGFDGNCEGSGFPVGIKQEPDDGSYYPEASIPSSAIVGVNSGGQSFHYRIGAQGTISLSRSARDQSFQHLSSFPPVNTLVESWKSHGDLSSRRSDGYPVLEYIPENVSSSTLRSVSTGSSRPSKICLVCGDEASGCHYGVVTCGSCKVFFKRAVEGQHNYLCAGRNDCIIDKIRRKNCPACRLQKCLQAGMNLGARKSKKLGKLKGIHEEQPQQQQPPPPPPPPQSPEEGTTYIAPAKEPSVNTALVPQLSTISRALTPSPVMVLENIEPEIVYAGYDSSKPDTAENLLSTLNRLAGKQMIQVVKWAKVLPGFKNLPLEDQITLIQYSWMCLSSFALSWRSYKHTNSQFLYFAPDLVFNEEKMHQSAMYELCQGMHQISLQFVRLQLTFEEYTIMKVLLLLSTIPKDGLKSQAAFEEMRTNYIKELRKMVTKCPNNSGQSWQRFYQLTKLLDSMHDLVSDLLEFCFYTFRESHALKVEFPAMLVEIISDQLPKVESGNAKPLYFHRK
Chain of Retinoic acid receptor alpha (Homo sapiens) (P10276 whole entry): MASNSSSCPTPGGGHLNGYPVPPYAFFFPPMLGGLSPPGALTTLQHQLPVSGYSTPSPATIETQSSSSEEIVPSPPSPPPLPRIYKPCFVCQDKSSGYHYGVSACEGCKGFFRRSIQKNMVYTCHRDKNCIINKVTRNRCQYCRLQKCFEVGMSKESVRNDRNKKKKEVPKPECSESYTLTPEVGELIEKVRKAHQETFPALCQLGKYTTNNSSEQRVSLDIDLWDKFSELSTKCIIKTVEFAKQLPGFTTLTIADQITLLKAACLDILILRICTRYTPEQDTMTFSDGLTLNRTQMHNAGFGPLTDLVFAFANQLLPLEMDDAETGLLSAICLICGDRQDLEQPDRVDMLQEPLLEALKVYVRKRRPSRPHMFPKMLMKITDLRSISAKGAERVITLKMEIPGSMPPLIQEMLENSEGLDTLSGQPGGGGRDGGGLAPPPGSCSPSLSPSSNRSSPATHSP
Chain of Retinoic acid receptor beta (Homo sapiens) (P10826 whole entry): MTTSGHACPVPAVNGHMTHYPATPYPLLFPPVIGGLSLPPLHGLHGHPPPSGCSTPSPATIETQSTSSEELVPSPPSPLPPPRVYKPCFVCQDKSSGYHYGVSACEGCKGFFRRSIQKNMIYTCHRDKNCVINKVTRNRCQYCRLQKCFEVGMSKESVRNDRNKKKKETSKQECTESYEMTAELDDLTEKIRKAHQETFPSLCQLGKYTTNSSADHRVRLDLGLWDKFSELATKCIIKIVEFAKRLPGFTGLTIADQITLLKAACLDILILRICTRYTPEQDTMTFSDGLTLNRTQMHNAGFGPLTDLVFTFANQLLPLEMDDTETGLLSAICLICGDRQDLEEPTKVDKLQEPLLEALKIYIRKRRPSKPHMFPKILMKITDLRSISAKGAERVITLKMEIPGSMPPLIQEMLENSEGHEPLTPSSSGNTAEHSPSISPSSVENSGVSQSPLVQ
Chain of Estrogen receptor (Homo sapiens) (P03372 whole entry): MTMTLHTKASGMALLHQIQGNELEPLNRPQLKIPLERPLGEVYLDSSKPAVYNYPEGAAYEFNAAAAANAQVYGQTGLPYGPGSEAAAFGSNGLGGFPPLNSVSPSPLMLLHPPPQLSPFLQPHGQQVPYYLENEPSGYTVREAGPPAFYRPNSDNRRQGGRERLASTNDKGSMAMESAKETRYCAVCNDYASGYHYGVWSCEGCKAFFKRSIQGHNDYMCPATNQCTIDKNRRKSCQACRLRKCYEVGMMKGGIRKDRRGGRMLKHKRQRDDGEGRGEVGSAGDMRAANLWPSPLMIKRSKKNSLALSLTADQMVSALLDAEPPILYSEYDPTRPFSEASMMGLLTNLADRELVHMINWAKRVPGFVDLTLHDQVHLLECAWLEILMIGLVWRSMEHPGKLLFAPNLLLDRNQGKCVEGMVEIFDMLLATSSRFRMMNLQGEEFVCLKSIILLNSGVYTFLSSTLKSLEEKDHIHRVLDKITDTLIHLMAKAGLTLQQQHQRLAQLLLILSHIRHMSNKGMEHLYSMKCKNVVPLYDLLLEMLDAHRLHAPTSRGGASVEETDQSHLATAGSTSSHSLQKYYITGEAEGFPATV
Chain of Peroxisome proliferator-activated receptor delta (Homo sapiens) (Q03181 whole entry): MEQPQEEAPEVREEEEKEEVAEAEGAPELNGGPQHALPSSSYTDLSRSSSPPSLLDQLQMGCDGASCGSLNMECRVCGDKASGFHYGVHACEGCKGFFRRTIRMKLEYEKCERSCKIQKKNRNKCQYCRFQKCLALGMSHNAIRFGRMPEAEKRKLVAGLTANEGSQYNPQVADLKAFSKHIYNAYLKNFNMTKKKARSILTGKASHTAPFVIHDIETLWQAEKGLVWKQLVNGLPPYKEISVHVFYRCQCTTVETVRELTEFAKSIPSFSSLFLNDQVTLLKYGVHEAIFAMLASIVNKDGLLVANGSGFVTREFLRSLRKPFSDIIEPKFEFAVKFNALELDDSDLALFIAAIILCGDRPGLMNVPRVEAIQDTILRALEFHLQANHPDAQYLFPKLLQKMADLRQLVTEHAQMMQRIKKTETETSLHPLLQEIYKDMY
Chain of Retinoic acid receptor RXR-beta (Homo sapiens) (P28702 whole entry): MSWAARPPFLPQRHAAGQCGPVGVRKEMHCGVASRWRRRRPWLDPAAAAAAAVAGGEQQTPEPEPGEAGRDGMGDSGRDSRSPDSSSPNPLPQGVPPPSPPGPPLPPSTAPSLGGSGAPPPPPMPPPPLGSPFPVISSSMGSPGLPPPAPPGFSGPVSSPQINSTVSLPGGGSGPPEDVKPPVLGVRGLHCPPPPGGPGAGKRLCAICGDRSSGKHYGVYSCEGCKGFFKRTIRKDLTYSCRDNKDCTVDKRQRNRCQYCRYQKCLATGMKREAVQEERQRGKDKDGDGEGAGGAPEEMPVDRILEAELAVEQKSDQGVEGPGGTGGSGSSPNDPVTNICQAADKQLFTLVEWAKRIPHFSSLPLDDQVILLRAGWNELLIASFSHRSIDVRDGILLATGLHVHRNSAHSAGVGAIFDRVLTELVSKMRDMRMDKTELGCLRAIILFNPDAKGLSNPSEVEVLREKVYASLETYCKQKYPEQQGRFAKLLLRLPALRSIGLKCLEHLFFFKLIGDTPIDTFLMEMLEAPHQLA

SMILES: CN(C)c1ccc(-c2ccc(CN(C(=O)C3CCCCC3)c3cccc(/C=C/C(=O)OCF)c3)cc2C#N)cc1
- EC50 (Bile acid receptor): 2600 nM

SMILES: COc1cccc(Cn2cc(C(=O)Nc3ccc(C)c(S(=O)(=O)N4CCOCC4)c3)c(-c3ccc(C)cc3)n2)c1
- Activity ([1]; filed as antagonist): 96%

SMILES: CN(C)c1ccc(-c2ccc(CN(C(=O)C3CCCCC3)c3cc(F)cc(/C=C/C(=O)O)c3)cc2C#N)cc1
- Vd [2]: 1.4 L/kg
- clearance [3]: 70 mL/min/kg
- AUC(0-t) at 24 h [4]: 1200 ng·h/mL
- Activity [5]: 7%
- Activity [6]: 6%
- Activity [1]: 26%
- Stability [7]: Unstable
- Activity [8]: 0%
- half-life [9]: 14.4 min

SMILES: CC(C)OC(=O)/C=C/c1cccc(N(Cc2ccc(-c3ccc(N(C)C)cc3)c(C#N)c2)C(=O)C2CCCCC2)c1F
- EC50 (Bile acid receptor): 900 nM

SMILES: COC(=O)/C=C/c1cccc(N(Cc2ccc(-c3ccc(N(C)C)cc3)cc2)C(=O)C2CCCCC2)c1 [FEXARAMINE]
- Activity [10]: Active
- Activity [11]: Non-Toxic
- Activity [12]: Non-Toxic
- Activity [13]: Active
- Activity [14]: Active
- Activity [15]: Active
- Activity [16]: Active
- Activity [17]: Active
- Activity [18]: Active
- Activity [19]: Non-Toxic

SMILES: COC(=O)/C=C/c1cccc(N(Cc2ccc3c(c2)CCc2cc(N(C)C)ccc2-3)C(=O)C2CCCCC2)c1
- EC50 (Bile acid receptor): > 10000 nM

SMILES: COC(=O)/C=C/c1cccc(N(Cc2ccc(-c3ccc(N(C)C)cc3)c(C#N)c2)C(=O)C2CCCCC2)c1
- Emax [20]: -2%
- Emax [21]: -3%
- Emax [22]: -2%
- Emax [23]: 3%
- Emax [24]: 1%
- Emax [25]: -11%
- Emax [26]: -1%
- Emax [27]: 0%
- Emax [28]: 2%
- Emax [29]: 0%
- Emax [30]: -4%
- Emax [31]: -3%
- Emax [32]: -1%
- Emax [33]: 1%
- Emax [34]: 0%
- Emax [35]: 0%
- Emax [36]: 0%

SMILES: COC(=O)/C=C/c1cccc(N(Cc2ccc3c(ccc4cc(N(C)C)ccc43)c2)C(=O)C2CCCCC2)c1
- EC50 (Bile acid receptor): > 10000 nM
